Read-outs that look alike come from different tables or passages of the source. Values belong to the compound of their own block, whether it stands above or below them.
Assays:
[1] = target: Mnk1 (Homo sapiens (Human), UniProt Q9BUB5); assay: Mnk1 kinase inhibition, ADP-Glo ADP monitoring assay; assay type: biochemical
Experimental: (§1) The synthesized compounds then were tested for inhibition of the kinase activity (IC50) of Mnk1 and/or Mnk2 using the ADP monitoring assay for kinases described in Zegzouti, H.; Zdanovskaia, M.; Hsiao, K.; Goueli, S. A., ADP-Glo: A Bioluminescent and homogeneous ADP monitoring assay for kinases.

[2] = target: Mnk2 (Homo sapiens (Human), UniProt Q9HBH9); assay: Mnk2 kinase inhibition, ADP-Glo ADP monitoring assay; assay type: biochemical
Experimental: as §1

[3] = ADP-Glo kinase assay, read-out: Mnk2 IC50
[4] = read-out: Mnk1 inhibition IC50 (+,++,+++)
[5] = ADP-Glo kinase assay, read-out: Mnk2 inhibition IC50 (+,++,+++)

Sequence of Mnk1 (Q9BUB5 whole entry): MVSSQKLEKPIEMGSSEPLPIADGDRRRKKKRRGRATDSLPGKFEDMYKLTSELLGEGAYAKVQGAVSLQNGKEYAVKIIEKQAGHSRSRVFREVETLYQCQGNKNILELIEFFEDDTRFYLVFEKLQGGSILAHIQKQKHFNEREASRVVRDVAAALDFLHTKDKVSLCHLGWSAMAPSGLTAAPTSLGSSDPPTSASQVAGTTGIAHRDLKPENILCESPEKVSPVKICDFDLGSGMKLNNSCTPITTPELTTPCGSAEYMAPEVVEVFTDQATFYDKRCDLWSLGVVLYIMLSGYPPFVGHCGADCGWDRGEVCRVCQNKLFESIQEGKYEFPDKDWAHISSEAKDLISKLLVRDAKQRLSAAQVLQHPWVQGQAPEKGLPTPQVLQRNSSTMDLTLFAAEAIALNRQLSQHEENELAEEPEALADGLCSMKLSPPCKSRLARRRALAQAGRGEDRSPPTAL
Sequence of Mnk2 (Q9HBH9 whole entry): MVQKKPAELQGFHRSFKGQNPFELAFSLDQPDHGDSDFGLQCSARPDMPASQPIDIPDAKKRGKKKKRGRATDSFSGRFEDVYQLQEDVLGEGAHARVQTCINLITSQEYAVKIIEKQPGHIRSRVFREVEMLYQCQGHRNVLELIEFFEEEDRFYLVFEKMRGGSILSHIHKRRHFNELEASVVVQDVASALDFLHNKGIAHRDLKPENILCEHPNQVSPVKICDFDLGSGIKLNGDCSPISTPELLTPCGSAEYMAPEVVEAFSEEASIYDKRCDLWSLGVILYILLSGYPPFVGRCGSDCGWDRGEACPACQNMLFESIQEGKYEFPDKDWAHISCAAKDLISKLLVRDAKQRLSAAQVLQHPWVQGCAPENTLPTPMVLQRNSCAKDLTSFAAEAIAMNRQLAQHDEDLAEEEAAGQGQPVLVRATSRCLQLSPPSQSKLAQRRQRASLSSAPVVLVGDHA

Compound: NC(=O)CNc1ncc(Cl)c(-n2cnc3ccccc32)n1 [NUCC-0176359]
IC50 ([1]; read-out: Mnk1 IC50): 1.5 µM | IC50 [2, 3]: 0.32 µM

Compound: Clc1cnc(NCc2cccnc2)nc1-n1cnc2ccccc21 [NUCC-0176360]
IC50 ([1]; read-out: Mnk1 IC50): 4.5 µM | IC50 [2, 3]: 1 µM

Compound: NC(=O)c1cccc(-c2cnc(OC3CC(N)C3)nc2-n2cnc3ccccc32)c1 (centres unmarked) [NUCC-0201899]
IC50 [1, 4]: 1 to 10 µM | IC50 [2, 5]: < 1 µM

Compound: Clc1cnc(NC2CCN(c3nccn4ccnc34)C2)nc1-n1cnc2ccccc21 (centres unmarked) [NUCC-0201015]
IC50 [1, 4]: 1 to 10 µM | IC50 [2]: 1 to 10 µM

Compound: Cn1cc(-c2ccnc(NCCCN3CCCCC3)n2)cn1 [NUCC-0060895]
IC50 ([1]; read-out: Mnk1 IC50): 5 µM

Compound: N#Cc1cnc(NCCCc2ccncc2)nc1-n1cnc2ccccc21 [NUCC-0200913]
IC50 [1, 4]: > 10 µM | IC50 [2, 5]: > 10 µM

Compound: c1ccc2c(c1)ncn2-c1ccnc(N[C@@H]2CCOC2)n1 [NUCC-0176149]
IC50 [2, 3]: 0.094 µM

Compound: O=C1NCCCCC1Nc1ccnc(-n2cnc3ccccc32)n1 (centres unmarked) [NUCC-0176368]
IC50 ([1]; read-out: Mnk1 IC50): 11 µM | IC50 [2, 3]: 5.2 µM

Compound: O[C@H](c1ccccc1)[C@@H](Nc1ccnc(-n2cnc3ccccc32)n1)c1ccccc1 [NUCC-0196259]
IC50 ([1]; unit inferred, read-out: Mnk1 IC50): 5.6 µM | IC50 ([2]; ADP-Glo kinase assay, unit inferred, read-out: Mnk2 IC50): 0.32 µM

Compound: N#Cc1cnc(Oc2ccc(Cl)cc2)nc1-n1cnc2ccccc21 [NUCC-0200787]
IC50 [1, 4]: < 1 µM | IC50 [2, 5]: < 1 µM

Compound: FC(F)(F)c1ccc(CCNc2ncc(Cl)c(-n3cnc4ccccc43)n2)cc1 [NUCC-0200784]
IC50 [1, 4]: > 10 µM | IC50 [2]: 1 to 10 µM

Compound: N#Cc1cnc(-n2cnc3ccccc32)nc1NCCCc1ccncc1 [NUCC-0200914]
IC50 [2, 5]: < 1 µM

Compound: COc1cccc(-n2cc(-c3ccnc(NCc4ccccc4)n3)cn2)c1 [NUCC-0077155]
IC50 ([1]; read-out: Mnk1 IC50): 21 µM

Compound: c1ccc2c(c1)ncn2-c1ccnc(NCc2ccncc2)n1 [NUCC-0125586]
IC50 ([1]; read-out: Mnk1 IC50): 0.5 µM

Compound: OC1CCN(c2ncc(Cl)c(-n3cnc4ccccc43)n2)CC1 [NUCC-0200781]
IC50 [2, 5]: < 1 µM

Compound: COc1cccc(-n2cc(-c3ccnc(NCCN4CCOCC4)n3)cn2)c1 [NUCC-0054138]
IC50 ([1]; read-out: Mnk1 IC50): 12 µM

Compound: c1ccc2c(c1)ccn2-c1ccnc(NCCN2CCOCC2)n1 [NUCC-0060953]
IC50 ([1]; read-out: Mnk1 IC50): 9 µM

Compound: COc1cccc(-n2cc(-c3ccnc(Nc4ccncc4)n3)cn2)c1 [NUCC-0077168]
IC50 ([1]; read-out: Mnk1 IC50): 19 µM

Compound: Cn1cc(-c2ccnc(NCc3ccc(F)cc3)n2)cn1 [NUCC-0060897]
IC50 ([1]; read-out: Mnk1 IC50): 9 µM

Compound: c1ccc(Cn2cc(-c3ccnc(NCCc4c[nH]cn4)n3)cn2)cc1 [NUCC-0060971]
IC50 ([1]; read-out: Mnk1 IC50): 19 µM

Compound: COc1cccc(-n2cc(-c3ccnc(NC4CCOCC4)n3)cn2)c1 [NUCC-0125591]
IC50 ([1]; read-out: Mnk1 IC50): 21 µM

More lines, now with the values ahead:

IC50 [1, 4]: 1 to 10 µM | IC50 [2]: 1 to 10 µM
Compound: O=C1CCN(c2ncc(Cl)c(-n3cnc4ccccc43)n2)C1 [NUCC-0201051]

IC50 [1, 4]: > 10 µM | IC50 [2, 5]: < 1 µM
Compound: Fc1ccc(CCNc2ncc(Cl)c(-n3cnc4ccccc43)n2)cc1 [NUCC-0200783]

IC50 [1, 4]: 1 to 10 µM | IC50 [2]: 1 to 10 µM
Compound: N#Cc1cn(-c2nc(OC3CC(N)C3)ncc2Cl)cn1 (centres unmarked) [NUCC-0201246]

IC50 [1, 4]: < 1 µM | IC50 [2, 5]: < 1 µM
Compound: Clc1cnc(NC2CCNC2)nc1-n1cnc2ccccc21 (centres unmarked) [NUCC-0201007]

IC50 ([1]; read-out: Mnk1 IC50): 13 µM | IC50 [2, 3]: 2.4 µM
Compound: Clc1cnc(NCCc2c[nH]c3ccccc23)nc1-n1cnc2ccccc21 [NUCC-0176355]

IC50 ([1]; read-out: Mnk1 IC50): 70 µM
Compound: c1cc(CCNc2nccc(-c3cnn(CCN4CCOCC4)c3)n2)ccn1 [NUCC-0060970]

IC50 [2, 5]: < 1 µM
Compound: NC1CC(Oc2ncc(-c3ccccc3OC(F)(F)F)c(-n3cnc4ccccc43)n2)C1 (centres unmarked) [NUCC-0201898, 3-((4-(1H-benzo[d]imidazol-1-yl)-5-(2-(trifluoromethoxy)phenyl)pyrimidin-2-yl)oxy)cyclobutan-1-amine]

IC50 ([1]; read-out: Mnk1 IC50): 4 µM
Compound: Cn1cc(-c2ccnc(NCCN3CCOCC3)n2)cn1 [NUCC-0060894]

IC50 ([1]; read-out: Mnk1 IC50): 6 µM
Compound: COc1cccc(-n2cc(-c3ccnc(NC4CCNCC4)n3)cn2)c1 [NUCC-0077164]

IC50 ([1]; read-out: Mnk1 IC50): 8 µM
Compound: COc1cccc(-n2cc(-c3ccnc(NCc4ccncc4)n3)cn2)c1 [NUCC-0077163]

IC50 ([1]; read-out: Mnk1 IC50): 90 µM
Compound: c1cc(CNc2nccc(-c3cnn(C4CCOCC4)c3)n2)ccn1 [NUCC-0060959]

IC50 ([1]; read-out: Mnk1 IC50): 1.4 µM
Compound: c1ccc2c(c1)ncn2-c1ccnc(NC2CCNCC2)n1 [NUCC-0125584]

IC50 ([1]; read-out: Mnk1 IC50): 28 µM
Compound: COc1cccc(-n2cc(-c3ccnc(NCCCN4CCOCC4)n3)cn2)c1 [NUCC-0077154, 4-(1-(3-methoxyphenyl)-1H-pyrazol-4-yl)-N-(3-morpholinopropyl)pyrimidin-2-amine]

IC50 ([1]; read-out: Mnk1 IC50): 30 µM
Compound: c1ccc(-n2cc(-c3ccnc(NCCc4c[nH]cn4)n3)cn2)cc1 [NUCC-0060965]

IC50 ([1]; read-out: Mnk1 IC50): 9 µM
Compound: CCNc1nccc(-c2cnn(-c3cccc(OC)c3)c2)n1 [NUCC-0054132]

IC50 ([1]; read-out: Mnk1 IC50): 0.5 µM
Compound: CN1CCN(c2ccc(Nc3nccc(-n4cnc5ccccc54)n3)cc2)CC1 [NUCC-0125587]

IC50 ([1]; read-out: Mnk1 IC50): 6 µM
Compound: COc1cccc(-n2cc(-c3ccnc(NC4CCOC4)n3)cn2)c1 (centres unmarked) [NUCC-0077165]

IC50 ([1]; read-out: Mnk1 IC50): 1 µM
Compound: c1ccc2c(c1)ncn2-c1ccnc(NCCN2CCOCC2)n1 [NUCC-0060956]
